The record followed here is PMC3034214, “Inhibition of Escherichia coli glycosyltransferase MurG and Mycobacterium tuberculosis Gal transferase by uridine-linked transition state mimics” (Bioorganic & Medicinal Chemistry, 2010).

For one assay, the target named is E. coli MurG (Escherichia coli, UniProt P17443). The experiment in a line: Coupled radiochemical MraY/MurG assay ([3H]-UDPGlcNAc incorporation into lipid intermediate II). As to conditions: for inhibition at 1000 µM: read-out: Percentage inhibition of E. coli MurG.
Assay [1] concerns Mycobacterium tuberculosis galactosyltransferase GlfT2. Kind of assay: Galactosyltransferase assay ([14C]Gal incorporation into Galf(β1→6)Galf-O-C8 acceptor, membranes and cell wall fraction). Type of assay: biochemical. As to conditions: read-out: Percentage inhibition of Mt GTase (Mycobacterium tuberculosis galactosyl transferase). From the text: The arabinogalactan cell wall polymer of M. tuberculosis is biosynthesised through the action of a series of glycosyltransferases,[16] several of which use UDP-sugar substrates, and therefore might be inhibited by this class of compound. We have characterised a UDP-galactose-dependent galactosyltransferase activity GlfT2, which can be assayed using specific neoglycolipid acceptors in the presence of membranes and Galf(β1→6)Galf-O-C8 resulting in excellent [[14]C]Galf incorporation from UDP-[^14C]Galp, following endogenous conversion to UDP-[^14C]Galf and transferase activity (Fig. 4).[17] […] The complete chemical characterisation of the enzymatically synthesised products along with the identity of the galactosyltransferase gene product were previously reported.[17]
Liquid cultures of Mycobacterium smegmatis mc^2155 were grown at 37 °C in Luria Bertoni (LB) broth medium (Difco) supplemented with 0.05% Tween 80, biomass harvested, washed with phosphate buffered saline (PBS) and stored at −20 °C until further use. M. smegmatis cells (10 g wet weight) were washed and re-suspended in 30 ml of buffer A, containing 50 mM MOPS (adjusted to pH 8.0 with KOH), 5 mM β-mercaptoethanol and 10 mM MgCl2 at 4 °C and subjected to probe sonication (Soniprep 150, MSE Sanyo Gallenkamp, Crawley, Sussex, UK; 1 cm probe) for a total time of 10 min in 60 s pulses and 90 s cooling intervals between pulses. The sonicate centrifuged at 27,000g for 60 min at 4 °C. The resulting mycobacterial cell wall pellets were re-suspended in buffer A. Percoll (Pharmacia, Sweden) was added to yield a 60% suspension and centrifuged at 27,000g for 1 h at 4 °C. The upper, particulate diffuse cell wall enzymatically active (P60) band was collected and washed three times with buffer A and re-suspended in buffer A at a final protein concentration of 10 mg/ml. Membrane fractions were obtained by centrifugation of the 27,000g supernatant at 100,000g for 1 h at 4 °C. The supernatant was carefully removed and the membranes gently re-suspended in buffer A at a protein concentration of 20 mg/ml. Protein concentrations were determined using the BCA Protein Assay Reagent kit (Pierce Europe, Oud-Beijerland, Netherlands).
The reaction mixtures were then incubated at 37 °C for 1 h. A CHCl3/CH3OH (1:1, 533 μl) solution was then added to the incubation tubes and the entire contents centrifuged at 18,000g. The supernatant was recovered and dried under a stream of argon and re-suspended in C2H5OH/H2O (1:1, 1 ml) and loaded onto a pre-equilibrated (C2H5OH/H2O [1:1]) 1 ml Whatmann strong anion exchange (SAX) cartridge which was washed with 3 ml of ethanol. The eluate was dried and the resulting products partitioned between the two phases arising from a mixture of n-butanol (3 ml) and H20 (3 ml). The resulting organic phase was recovered following centrifugation at 3,500g and the aqueous phase was again extracted twice with 3 ml of n-butanol saturated water, the pooled extracts were back-washed twice with water saturated with n-butanol (3 ml). The n-butanol–saturated water fraction was dried and re-suspended in 200 μl of n-butanol. The total cpm of radiolabeled material extractable into the n-butanol phase was measured by scintillation counting using 10% of the labelled material and 10 ml of EcoScintA (National Diagnostics, Atlanta). The incorporation of [^14C]Gal was determined by subtracting counts present in control assays (incubation of the reaction components in the absence of the compounds).

A further assay has as its system Micrococcus luteus. Kind of assay: Antibacterial testing, growth in LB in 96-well plates (OD 595 nm). To be noted: read-out: Growth inhibition of M. luteus.
In a further assay the test system is Pseudomonas putida. The assay is described as above. To be noted: ATCC 33015.
Another assay concerns B. subtilis. Described as above. To be noted: B. subtilis W23.
A further assay concerns E. coli. Described as above. Type of assay: cell-based, Escherichia coli. To be noted: E. coli BL21.

Mycobacterium tuberculosis galactosyltransferase GlfT2, sequence (A0R628 whole entry): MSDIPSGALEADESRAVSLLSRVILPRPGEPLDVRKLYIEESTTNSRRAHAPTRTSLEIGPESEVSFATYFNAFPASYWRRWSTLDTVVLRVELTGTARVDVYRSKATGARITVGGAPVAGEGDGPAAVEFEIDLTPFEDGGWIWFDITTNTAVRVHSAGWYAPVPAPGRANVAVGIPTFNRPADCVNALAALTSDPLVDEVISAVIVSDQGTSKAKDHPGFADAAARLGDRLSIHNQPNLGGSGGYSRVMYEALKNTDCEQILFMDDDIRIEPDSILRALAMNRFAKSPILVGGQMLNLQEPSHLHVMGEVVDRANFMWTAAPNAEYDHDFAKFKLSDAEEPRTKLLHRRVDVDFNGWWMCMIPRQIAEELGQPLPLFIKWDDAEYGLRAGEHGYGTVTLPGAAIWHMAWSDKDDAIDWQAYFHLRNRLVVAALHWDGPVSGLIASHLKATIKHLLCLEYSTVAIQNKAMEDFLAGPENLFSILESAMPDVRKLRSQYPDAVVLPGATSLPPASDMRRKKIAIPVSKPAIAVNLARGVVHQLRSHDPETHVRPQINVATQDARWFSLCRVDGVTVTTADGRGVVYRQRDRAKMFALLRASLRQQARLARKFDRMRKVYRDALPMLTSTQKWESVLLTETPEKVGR
E. coli MurG, sequence (P17443 whole entry): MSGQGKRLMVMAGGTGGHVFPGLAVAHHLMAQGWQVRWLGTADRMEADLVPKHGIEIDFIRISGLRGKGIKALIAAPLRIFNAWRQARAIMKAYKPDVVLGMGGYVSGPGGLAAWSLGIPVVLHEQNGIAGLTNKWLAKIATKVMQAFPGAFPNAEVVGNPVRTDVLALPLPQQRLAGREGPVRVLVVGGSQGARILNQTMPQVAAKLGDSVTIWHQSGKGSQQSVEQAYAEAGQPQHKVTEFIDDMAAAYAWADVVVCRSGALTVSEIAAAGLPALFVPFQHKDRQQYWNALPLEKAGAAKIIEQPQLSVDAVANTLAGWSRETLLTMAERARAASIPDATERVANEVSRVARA
Protocol for B. subtilis: (§1) The following procedure was performed using P. putida (ATCC 33015), M. luteus (ATCC 13513), E. coli BL21 and B. subtilis W23. A single colony of the bacterial strain was picked from an LB agar plate and grown in 10 ml of sterile LB medium overnight at 37 °C. 1 ml of this culture was then used to inoculate 50 ml of sterile LB medium at 2%. Hundred microlitres of this 2% culture was pipetted into each well of a 96-well plate. Hundred microlitres of sterile water or sterile aqueous inhibitor solution (200 μg/ml or 1 mg/ml) were then pipetted into each well and the 96-well plates were incubated at 37 °C. Bacterial growth was monitored by measuring the OD at 595 nm at 3, 6 and 24 h.
Protocol for Micrococcus luteus: as §1
Protocol for Pseudomonas putida: as §1

Regarding `COC(=O)C1C(C(O)CO)NC2(C)C(=O)N(CC(=O)NCC3OC(n4ccc(=O)[nH]c4=O)C(O)C3O)C(=O)C12` (mixture of isomers) [15e], on E. coli MurG, the IC50 (in general, the concentration that inhibits the measured activity by half) is greater than 5 mM and the inhibition (in general, the drop in the measured response relative to a control, in per cent) at 1000 µM is 27%.

With ramoplanin [reference compound], the “Inhibition of MurG” value at E. coli MurG (20 μM ramoplanin) was greater than 90%.

For the compound `COC(=O)[C@H]1[C@@H](c2ccccc2OC)N[C@@](C)(C(=O)N2CCC[C@H]2C(=O)NC[C@H]2O[C@@H](n3ccc(=O)[nH]c3=O)[C@H](O)[C@@H]2O)[C@@H]1C(=O)OC` (mixture of isomers) [20c], the inhibition at 1000 µM was 22% on E. coli MurG and 0% in assay [1].

Regarding `COc1ccccc1[C@@H]1[C@@H]2C(=O)N(c3ccccc3)C(=O)[C@@H]2[C@H](C(=O)N(C)CC(=O)NC[C@H]2O[C@@H](n3ccc(=O)[nH]c3=O)[C@H](O)[C@@H]2O)N1C` [compound 19], on E. coli MurG, the “Inhibition of / binding to MurG (in words)” value (shortened to “Inhibition of / binding”) was “did bind to MurG” and the inhibition at 1000 µM worked out at 31%.

As for `C[C@@]1(C(=O)NCC(=O)NC[C@H]2O[C@@H](n3ccc(=O)[nH]c3=O)[C@H](O)[C@@H]2O)N[C@H](C(O)CO)[C@@H]2C(=O)N(c3ccccc3)C(=O)[C@@H]21` (mixture of isomers) [13e], the inhibition at 1000 µM (at E. coli MurG; in assay [1]) was 0% in each case.

With `COC(=O)[C@H]1[C@@H](c2ccccc2)N[C@@](C)(C(=O)NCC(=O)NC[C@H]2O[C@@H](n3ccc(=O)[nH]c3=O)[C@H](O)[C@@H]2O)[C@@H]1C(=O)OC` (mixture of isomers) [14a], the inhibition at 1000 µM at E. coli MurG was 0%.

Take `CCN1C(=O)C2[C@@H](C1=O)[C@@H](C(O)CO)N[C@@]2(C)C(=O)N1CCC[C@H]1C(=O)NC[C@H]1O[C@@H](n2ccc(=O)[nH]c2=O)[C@H](O)[C@@H]1O` (mixture of isomers) [20d]: the inhibition at 1000 µM (at E. coli MurG; in assay [1]) was 0% throughout.

Take `COc1ccccc1[C@H]1N[C@@](C)(C(=O)NCC(=O)NC[C@H]2O[C@@H](n3ccc(=O)[nH]c3=O)[C@H](O)[C@@H]2O)[C@H]2C(=O)N(c3ccccc3)C(=O)[C@@H]12` (mixture of isomers) [13b]: the inhibition at 100 µg/mL with Micrococcus luteus turned out to be 50%. The “Antibacterial activity against Pseudomonas putida (in words)” value in the assay on Pseudomonas putida is given as “no effects”. At E. coli MurG, the IC50 amounted to 0.4 mM and the inhibition at 1000 µM was determined as 85%. In the assay with B. subtilis, the “Antibacterial activity against B. subtilis (in words)” value is listed as “no effects”. The inhibition at 1000 µM in assay [1] was found to be 0%. Further, the “Antibacterial activity against E. coli (in words)” value with E. coli is reported as “no effects”.

As for `COC(=O)[C@H]1[C@@H](c2ccccc2OC)N[C@@](C)(C(=O)N2CCC[C@H]2C(=O)NC[C@H]2O[C@@H](n3ccc(=O)[nH]c3=O)[C@H](O)[C@@H]2O)[C@H]1C(=O)OC` (mixture of isomers) [20b], the inhibition at 1000 µM (on E. coli MurG; in assay [1]) was 0% in each case.

In the case of `COc1ccccc1[C@H]1N[C@@](C)(COC(=O)CC(=O)OC[C@H]2O[C@@H](n3ccc(=O)[nH]c3=O)[C@H](O)[C@@H]2O)[C@H]2C(=O)N(c3ccccc3)C(=O)[C@@H]12` [compound 24], at E. coli MurG, the “Inhibition of / binding” value is listed as “weak activity” and the inhibition at 1000 µM is 17%. Moreover, the inhibition at 1000 µM in assay [1] turned out to be 0%.

For the compound `COc1cccc([C@H]2N[C@@](C)(C(=O)NCC(=O)NC[C@H]3O[C@@H](n4ccc(=O)[nH]c4=O)[C@H](O)[C@@H]3O)[C@H]3C(=O)N(c4ccccc4)C(=O)[C@@H]23)c1OC` (mixture of isomers) [13c], the inhibition at 1000 µM (at E. coli MurG; in assay [1]) was 0% each time.

Turning to `COc1ccccc1[C@H]1N[C@@](C)(COC(=O)CCC(=O)OC[C@H]2O[C@@H](n3ccc(=O)[nH]c3=O)[C@H](O)[C@@H]2O)[C@H]2C(=O)N(c3ccccc3)C(=O)[C@@H]12` (mixture of isomers) [compound 25], on E. coli MurG, the “Inhibition of / binding” value is reported as “weak activity” and the inhibition at 1000 µM was found to be 15%. The inhibition at 1000 µM in assay [1] was 0%.

For `COC(=O)[C@H]1[C@@H](c2ccccc2OC)N[C@@](C)(C(=O)NCC(=O)NC[C@H]2O[C@@H](n3ccc(=O)[nH]c3=O)[C@H](O)[C@@H]2O)[C@@H]1C(=O)OC` (mixture of isomers) [14b], at E. coli MurG, the IC50 is greater than 5 mM and the inhibition at 1000 µM was 32%. Moreover, the inhibition at 1000 µM in assay [1] amounted to 0%.

In the case of `COC(=O)C1C(c2ccc(OC)c(OC)c2)NC2(C)C(=O)N(CC(=O)NCC3OC(n4ccc(=O)[nH]c4=O)C(O)C3O)C(=O)C12` (centres unmarked) [16d], on E. coli MurG, it took 4 mM to reach half-maximal inhibition (IC50) and the inhibition at 1000 µM worked out at 26%. Further, the inhibition at 1000 µM in assay [1] was determined as 0%.
